In patent US11377442B2, “Small molecule agonists and antagonists of NR2F6 activity” (ZANDER THERAPEUTICS, INC., priority 2016, dated 2022):
One block for each compound: values may come before it.

Target: T1, NR2F6 (Homo sapiens, UniProt P10588)
T1 construct: expressed in transfected cells; also transient transfection
T1 sequence (P10588 1-404): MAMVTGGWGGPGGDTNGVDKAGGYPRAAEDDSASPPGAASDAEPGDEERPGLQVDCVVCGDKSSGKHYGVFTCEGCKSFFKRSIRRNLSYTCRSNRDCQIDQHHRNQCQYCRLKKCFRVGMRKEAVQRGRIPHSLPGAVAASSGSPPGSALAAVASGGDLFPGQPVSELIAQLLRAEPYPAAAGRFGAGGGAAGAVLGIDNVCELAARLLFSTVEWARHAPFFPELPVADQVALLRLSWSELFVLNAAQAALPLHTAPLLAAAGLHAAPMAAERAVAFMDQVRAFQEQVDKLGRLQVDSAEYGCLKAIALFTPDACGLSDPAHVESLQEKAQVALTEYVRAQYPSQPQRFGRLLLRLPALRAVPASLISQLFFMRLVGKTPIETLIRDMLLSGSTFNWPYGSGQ
Assay: NR2F6 agonist screening, Firefly signal cmpd/DMSO
Format: cell-based
Conditions: for Firefly/Renilla (NR2F6 stable, clone F4): ratio Firefly/Renilla; for Firefly, NR2F6 stable (clone F4)/pGL4: ratio of Firefly in NR2F6 stable clone F4 to pGL4

[1] = C11 analogs follow set (Tables 2-10)

Compound: COc1ccc(S(=O)(=O)c2cc3cc(Br)cc(Br)c3oc2=O)cc1 [Compound C283]
- Firefly, cmpd/DMSO repeat 1 (Table 11): 1.0
- Firefly, cmpd/DMSO repeat 2 (Table 11): 1.3

Compound: COc1cc(NC(=O)c2ccc3oc(=O)c(S(=O)(=O)c4ccc(F)cc4)cc3c2)cc(OC)c1 [Compound C132]
- Firefly, cmpd/DMSO repeat 1 [1]: 1.4
- Firefly, cmpd/DMSO repeat 2 [1]: 1.4

Compound: Cc1cc(C)cc(S(=O)(=O)c2cc3cc(Br)ccc3oc2=O)c1 [Compound C187]
- Firefly, cmpd/DMSO repeat 1 [1]: 0.8
- Firefly, cmpd/DMSO repeat 2 [1]: 0.7

Compound: COc1cc(NC(=O)c2ccc3oc(=O)c(S(=O)(=O)c4ccc(Cl)cc4)cc3c2)cc(OC)c1 [Compound C133]
- Firefly, cmpd/DMSO repeat 1 [1]: 2.1
- Firefly, cmpd/DMSO repeat 2 [1]: 4.3

Compound: COc1ccccc1-c1noc(Cn2ncc(Cl)cc2=O)n1 [Compound Z135]
- Firefly, cmpd/DMSO (mean): 1.0

Compound: CCOc1cccc2cc(S(=O)(=O)c3ccc(C(C)(C)C)cc3)c(=O)oc12 [Compound C240]
- Firefly, cmpd/DMSO repeat 1 (Table 9): 1.5
- Firefly, cmpd/DMSO repeat 2 (Table 9): 0.9

Compound: COc1ccccc1-c1noc(Cn2ncc(C)cc2=O)n1 [Compound Z150]
- Firefly, cmpd/DMSO (mean): 1.0

Compound: COc1ccccc1NC(=O)c1ccc2oc(=O)c(S(=O)(=O)c3ccccc3)cc2c1 [Compound C123]
- Firefly, cmpd/DMSO repeat 1 [1]: 17.7
- Firefly, cmpd/DMSO repeat 2 [1]: 16.8

Compound: CCOc1cccc2cc(S(=O)(=O)c3ccc(C)cc3)c(=O)oc12 [Compound C236]
- Firefly, cmpd/DMSO repeat 1 (Table 9): 4.4
- Firefly, cmpd/DMSO repeat 2 (Table 9): 4.9

Compound: CC(C)c1ccc(S(=O)(=O)c2cc3cc(Br)cc(Br)c3oc2=O)cc1 [Compound C284]
- Firefly, cmpd/DMSO repeat 1 (Table 11): 2.9
- Firefly, cmpd/DMSO repeat 2 (Table 11): 2.5

Compound: CC(C)(C)c1ccc(S(=O)(=O)c2cc3cc(F)cc(F)c3oc2=O)cc1 [Compound C291]
- Firefly, cmpd/DMSO repeat 1 (Table 11): 0.9
- Firefly, cmpd/DMSO repeat 2 (Table 11): 0.8

Compound: O=C(NCc1ccccc1)c1ccc2oc(=O)c(S(=O)(=O)c3ccccc3)cc2c1 [Compound C115]
- Firefly, cmpd/DMSO repeat 1 [1]: 6.8
- Firefly, cmpd/DMSO repeat 2 [1]: 21.9

Compound: CCOc1cccc2cc(S(=O)(=O)c3ccc(Br)cc3)c(=O)oc12 [Compound C239]
- Firefly, cmpd/DMSO repeat 1 (Table 9): 1.4
- Firefly, cmpd/DMSO repeat 2 (Table 9): 2.2

Compound: COc1ccc(-c2noc(Cn3nccc(Cl)c3=O)n2)cc1 [Compound Z141]
- Firefly, cmpd/DMSO (mean): 1.8

Compound: Cc1cc(C)cc(NC(=O)c2ccc3oc(=O)c(S(=O)(=O)c4ccc(F)cc4)cc3c2)c1 [Compound C176]
- Firefly, cmpd/DMSO repeat 1 [1]: 3.7
- Firefly, cmpd/DMSO repeat 2 [1]: 9.6

Compound: CC(C)(C)c1ccc(S(=O)(=O)c2cc3cc([N+](=O)[O-])ccc3oc2=O)cc1 [Compound C139]
- Firefly, cmpd/DMSO repeat 1 [1]: 6.6
- Firefly, cmpd/DMSO repeat 2 [1]: 6.4

Compound: COc1cccc2cc(S(=O)(=O)c3ccc(C(C)C)cc3)c(=O)oc12 [Compound C241]
- Firefly, cmpd/DMSO repeat 1 (Table 9): 2.1
- Firefly, cmpd/DMSO repeat 2 (Table 9): 2.7

Other lines, results leading:

- Firefly, cmpd/DMSO repeat 1 [1]: 1.3
- Firefly, cmpd/DMSO repeat 2 [1]: 0.9
Compound: COc1ccc2oc(=O)c(S(=O)(=O)c3ccccc3F)cc2c1 [Compound C221]

- Firefly, cmpd/DMSO repeat 1 [1]: 4.5
- Firefly, cmpd/DMSO repeat 2 [1]: 4.7
- Firefly/Renilla (NR2F6 stable, clone F4) (Table 12): 2.4
- Firefly, NR2F6 stable (clone F4)/pGL4 (Table 12): 3.6
- Firefly, cmpd/DMSO repeat 1 (Table 12): 4.5
- Firefly, cmpd/DMSO repeat 2 (Table 12): 4.7
Compound: COc1ccc(S(=O)(=O)c2cc3ccccc3oc2=O)cc1 [Compound C101]

- Firefly, cmpd/DMSO repeat 1 [1]: 1.0
- Firefly, cmpd/DMSO repeat 2 [1]: 1.0
Compound: COc1ccc2oc(=O)c(S(=O)(=O)c3ccc(OC)c(OC)c3)cc2c1 [Compound C156]

- Firefly, cmpd/DMSO repeat 1 [1]: 11.0
- Firefly, cmpd/DMSO repeat 2 [1]: 11.0
- Firefly/Renilla (NR2F6 stable, clone F4) (Table 13): 1.4
- Firefly, NR2F6 stable (clone F4)/pGL4 (Table 13): 5.8
- Firefly, cmpd/DMSO repeat 1 (Table 13): 11.0
- Firefly, cmpd/DMSO repeat 2 (Table 13): 11.0
Compound: O=c1oc2ccccc2cc1S(=O)(=O)c1ccc(F)c(Cl)c1 [Compound C107]

- Firefly, cmpd/DMSO repeat 1 [1]: 22.6
- Firefly, cmpd/DMSO repeat 2 [1]: 23.4
- Firefly/Renilla (NR2F6 stable, clone F4) (Table 13): 1.4
- Firefly, NR2F6 stable (clone F4)/pGL4 (Table 13): 8.4
- Firefly, cmpd/DMSO repeat 1 (Table 13): 22.6
- Firefly, cmpd/DMSO repeat 2 (Table 13): 23.4
Compound: O=c1oc2ccc([N+](=O)[O-])cc2cc1S(=O)(=O)c1ccc(F)cc1 [Compound C137]

- Firefly, cmpd/DMSO repeat 1 [1]: 4.5
- Firefly, cmpd/DMSO repeat 2 [1]: 3.1
Compound: COc1ccc2cc(S(=O)(=O)c3ccc(Cl)c(Cl)c3)c(=O)oc2c1 [Compound C272]

- Firefly, cmpd/DMSO repeat 1 [1]: 1.3
- Firefly, cmpd/DMSO repeat 2 [1]: 2.5
Compound: O=c1oc2ccc(Br)cc2cc1S(=O)(=O)c1ccccc1F [Compound C219]

- Firefly, cmpd/DMSO repeat 1 [1]: 2.0
- Firefly, cmpd/DMSO repeat 2 [1]: 1.5
Compound: O=c1oc2cc(O)ccc2cc1S(=O)(=O)c1ccccc1 [Compound C273]

- Firefly, cmpd/DMSO repeat 1 [1]: 22.9
- Firefly, cmpd/DMSO repeat 2 [1]: 20.2
- Firefly/Renilla (NR2F6 stable, clone F4) (Table 12): 2.4
- Firefly, NR2F6 stable (clone F4)/pGL4 (Table 12): 7.2
- Firefly, cmpd/DMSO repeat 1 (Table 12): 22.9
- Firefly, cmpd/DMSO repeat 2 (Table 12): 20.2
Compound: Cc1ccccc1NC(=O)c1ccc2oc(=O)c(S(=O)(=O)c3ccc(F)cc3)cc2c1 [Compound C160]

- Firefly, cmpd/DMSO repeat 1 [1]: 2.0
- Firefly, cmpd/DMSO repeat 2 [1]: 1.4
Compound: COc1ccc2cc(S(=O)(=O)c3ccc(C)c(Cl)c3)c(=O)oc2c1 [Compound C261]

- Firefly, cmpd/DMSO repeat 1 [1]: 4.5
- Firefly, cmpd/DMSO repeat 2 [1]: 5.1
Compound: Cc1cc(S(=O)(=O)c2cc3cc(Br)ccc3oc2=O)ccc1F [Compound C223]

- Firefly, cmpd/DMSO repeat 1 [1]: 11.0
- Firefly, cmpd/DMSO repeat 2 [1]: 8.1
- Firefly/Renilla (NR2F6 stable, clone F4) (Table 13): 1.2
- Firefly, NR2F6 stable (clone F4)/pGL4 (Table 13): 5.4
- Firefly, cmpd/DMSO repeat 1 (Table 13): 11.0
- Firefly, cmpd/DMSO repeat 2 (Table 13): 8.1
Compound: CC(C)(C)c1ccc(S(=O)(=O)c2cc3cc(Br)ccc3oc2=O)cc1 [Compound C200]

- Firefly, cmpd/DMSO repeat 1 (Table 9): 9.7
- Firefly, cmpd/DMSO repeat 2 (Table 9): 14.1
Compound: CCOc1cccc2cc(S(=O)(=O)c3ccc(Cl)cc3)c(=O)oc12 [Compound C244]

- Firefly, cmpd/DMSO repeat 1 [1]: 1.0
- Firefly, cmpd/DMSO repeat 2 [1]: 6.9
Compound: Cc1cc(C)cc(S(=O)(=O)c2cc3cc(Cl)ccc3oc2=O)c1 [Compound C186]

- Firefly, cmpd/DMSO repeat 1 [1]: 1.0
- Firefly, cmpd/DMSO repeat 2 [1]: 0.8
Compound: O=c1oc2ccc(Br)cc2cc1S(=O)(=O)c1ccc(F)cc1 [Compound C198]

- Firefly, cmpd/DMSO repeat 1 (Table 11): 6.8
- Firefly, cmpd/DMSO repeat 2 (Table 11): 3.3
Compound: O=c1oc2c(F)cc(F)cc2cc1S(=O)(=O)c1ccccc1 [Compound C288]

- Firefly, cmpd/DMSO repeat 1 [1]: 6.9
- Firefly, cmpd/DMSO repeat 2 [1]: 6.0
Compound: CC(C)(C)c1ccc(S(=O)(=O)c2cc3cc(Cl)ccc3oc2=O)cc1 [Compound C205]

- Firefly, cmpd/DMSO repeat 1 [1]: 10.6
- Firefly, cmpd/DMSO repeat 2 [1]: 6.3
- Firefly/Renilla (NR2F6 stable, clone F4) (Table 13): 1.3
- Firefly, NR2F6 stable (clone F4)/pGL4 (Table 13): 6.6
- Firefly, cmpd/DMSO repeat 1 (Table 13): 10.6
- Firefly, cmpd/DMSO repeat 2 (Table 13): 6.3
Compound: O=c1oc2ccc(Cl)cc2cc1S(=O)(=O)c1cc(F)cc(F)c1 [Compound C194]

- Firefly, cmpd/DMSO repeat 1 [1]: 14.0
- Firefly, cmpd/DMSO repeat 2 [1]: 12.9
- Firefly/Renilla (NR2F6 stable, clone F4) (Table 12): 1.8
- Firefly, NR2F6 stable (clone F4)/pGL4 (Table 12): 4.2
- Firefly, cmpd/DMSO repeat 1 (Table 12): 14.0
- Firefly, cmpd/DMSO repeat 2 (Table 12): 12.9
Compound: COC(=O)c1ccc2oc(=O)c(S(=O)(=O)c3ccc(C)cc3)cc2c1 [Compound C13]

- Firefly, cmpd/DMSO repeat 1 (Table 9): 2.8
- Firefly, cmpd/DMSO repeat 2 (Table 9): 2.1
Compound: COc1cccc2cc(S(=O)(=O)c3ccc(Br)cc3)c(=O)oc12 [Compound C233]

- Firefly, cmpd/DMSO repeat 1 (Table 11): 2.3
- Firefly, cmpd/DMSO repeat 2 (Table 11): 2.4
Compound: O=c1oc2c(Br)cc(Br)cc2cc1S(=O)(=O)c1ccc(Cl)cc1 [Compound C286]
